Reference: PMC3725995 (Bioorganic & medicinal chemistry letters, 2010)
Where two headings read alike, the source gives them in different places.

Columns and labels:
[1] = molecular target: system LAT1 transporter of the blood–brain barrier (Rattus norvegicus, UniProt Q63016); experiment: in situ rat brain perfusion: inhibition of L-[14C]-leucine uptake into rat brain; details: in vivo
[2] = system: system LAT1 transporter; details: cited from earlier work; for Ki: read-out: Ki for the system L transporter
[3] = cited from earlier work
[4] = cited from earlier work; remark: listed apart in the source
[5] = read-out: Km for system LAT1 transporter

Chain of system LAT1 transporter of the blood–brain barrier (Q63016 whole entry, the tested form may be a part): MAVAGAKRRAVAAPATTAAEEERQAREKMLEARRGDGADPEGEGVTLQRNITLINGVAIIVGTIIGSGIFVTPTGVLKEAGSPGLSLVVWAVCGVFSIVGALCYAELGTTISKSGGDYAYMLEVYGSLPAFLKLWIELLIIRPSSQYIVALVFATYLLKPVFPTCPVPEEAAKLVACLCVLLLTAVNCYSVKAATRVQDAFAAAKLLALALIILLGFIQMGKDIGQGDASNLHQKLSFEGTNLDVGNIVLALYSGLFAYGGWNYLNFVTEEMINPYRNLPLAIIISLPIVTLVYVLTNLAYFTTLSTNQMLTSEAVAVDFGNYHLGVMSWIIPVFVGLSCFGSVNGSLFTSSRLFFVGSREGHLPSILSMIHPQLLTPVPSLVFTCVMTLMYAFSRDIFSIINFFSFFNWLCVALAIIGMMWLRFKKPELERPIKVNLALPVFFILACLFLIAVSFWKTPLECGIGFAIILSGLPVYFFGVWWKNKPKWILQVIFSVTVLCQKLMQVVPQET
Chain of system LAT1 transporter of the blood–brain barrier (Q794F9 whole entry partner, the tested form may be a part): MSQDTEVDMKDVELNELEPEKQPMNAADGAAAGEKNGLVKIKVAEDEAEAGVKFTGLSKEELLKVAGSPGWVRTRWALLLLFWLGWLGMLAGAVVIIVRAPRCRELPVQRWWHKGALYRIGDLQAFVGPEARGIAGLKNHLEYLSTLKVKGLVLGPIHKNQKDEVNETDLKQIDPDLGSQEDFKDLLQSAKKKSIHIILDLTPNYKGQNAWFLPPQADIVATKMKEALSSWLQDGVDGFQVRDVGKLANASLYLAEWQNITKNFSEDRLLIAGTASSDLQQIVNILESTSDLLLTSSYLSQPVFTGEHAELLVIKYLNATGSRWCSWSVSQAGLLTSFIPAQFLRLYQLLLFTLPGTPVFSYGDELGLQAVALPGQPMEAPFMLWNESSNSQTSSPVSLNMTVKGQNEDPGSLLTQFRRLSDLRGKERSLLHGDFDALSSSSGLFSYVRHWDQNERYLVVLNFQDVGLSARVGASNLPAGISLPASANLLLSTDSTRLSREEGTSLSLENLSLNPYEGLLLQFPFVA

## NC1(C(=O)O)CC2CC1c1cc(N(CCCl)CCCl)ccc12 (mixture of isomers) [compound 7, (±)-2-endo-amino-bis(2-chloroethyl)-7′-aminobenzobicyclo[2.2.1]heptane-2-exo-carboxylic acid]
[1]
  times lower affinity for the system LAT1 transporter than 5c: 25 times

## NC1(C(=O)O)CCc2ccccc2C1 (racemic) [compound 3, DL-2-amino-1,2,3,4,-tetrahydronaphthoic acid, reference compound]
[2]; [5]
  Km: 7.1 µM

## NC1(C(=O)O)CCc2c(cccc2N(CCCl)CCCl)C1 (centres unmarked) [5a]
[1]
  times lower affinity for the system LAT1 transporter than 5c: 100 times
[2]
  Ki: ~25 µM

## NC1(C(=O)O)CCc2ccc(N(CCCl)CCCl)cc2C1 (centres unmarked) [5c]
[2]
  Vmax of uptake into brain by blood–brain barrier system LAT1 transporter: 0.26 nmol/min/g
  Ki: ~0.2 µM
[2]; [5]
  Km: 0.19 µM
[3]
  in vitro antitumor activity compared to melphalan: enhanced
[4]
  myelosuppressive activity compared to melphalan: reduced

## N[C@@H](Cc1ccc(N(CCCl)CCCl)cc1)C(=O)O [compound 2, Melphalan, reference compound]
[2]; read-out: Km for system LAT1, estimated
  Km: 90 to 150 µM

## NC1(C(=O)O)CC2CCC1C2 (centres unmarked) [compound 4, reference compound]
[2]; in vivo
  affinity for the system LAT1 transporter: good affinity
